These results are taken from ChEMBL document CHEMBL3108682, “Piperazine oxadiazole inhibitors of acetyl-CoA carboxylase” (J Med Chem, 2013).

What all share (assay type): ADME, organism-based
Data set [1] has as its system Plasma. Kind of data set: Fraction unbound in C57BL6 mouse plasma at 35 mg/kg, po. On the set-up: dose 35 mg/kg, route oral. The settings on record: in vivo.
The subject of data set [2] is Plasma. Kind of data set: Fraction unbound in C57BL6 mouse plasma at 15 mg/kg, po. On the set-up: dose 15 mg/kg, route oral. The settings on record: in vivo.
In data set [3] the test system is Plasma. Kind of data set: Fraction unbound in C57BL6 mouse plasma at 25 mg/kg, po after 8 hrs. On the set-up: dose 25 mg/kg, route oral. The settings on record: in vivo.
Data set [4] has as its system Plasma. Kind of data set: Fraction unbound in C57BL6 mouse plasma at 25 mg/kg, po after 12 hrs. Also noted: dose 25 mg/kg, route oral. The settings on record: in vivo.
Data set [5] relates to Plasma. Kind of data set: Fraction unbound in C57BL6 mouse plasma at 25 mg/kg, po after 4 hrs. Also noted: dose 25 mg/kg, route oral. The settings on record: in vivo.
For data set [6], the system named is Plasma. Kind of data set: Fraction unbound in C57BL6 mouse plasma at 100 mg/kg, po. On the set-up: dose 100 mg/kg, route oral. The settings on record: in vivo.
The subject of data set [7] is Plasma. The data set is described as follows: Fraction unbound in C57BL6 mouse plasma at 25 mg/kg, po after 1 hr. Also noted: dose 25 mg/kg, route oral. The settings on record: in vivo.
Data set [8] has as its system Plasma. Kind of data set: Fraction unbound in C57BL6 mouse plasma at 25 mg/kg, po. On the set-up: dose 25 mg/kg, route oral. The settings on record: in vivo.
Data set [9] has as its system Plasma. The data set is described as follows: Fraction unbound in C57BL6 mouse plasma at 50 mg/kg, po. On the set-up: dose 50 mg/kg, route oral. The settings on record: in vivo.
Data set [10] is described as follows: Oral bioavailability in C57BL6 mouse at 5 mg/kg. The settings on record: in vivo.
The nature of data set [11]: Cmax in C57BL6 mouse at 5 mg/kg, po. Also noted: dose 5 mg/kg, route oral. The settings on record: in vivo.
The nature of data set [12]: Volume of distribution at steady state in C57BL6 mouse at 2 mg/kg, iv. Also noted: dose 2 mg/kg, route intravenous. The settings on record: in vivo, read-out: Vdss.
A short description of data set [13]: Oral bioavailability in Sprague-Dawley rat at 5 mg/kg. The settings on record: in vivo.
Data set [14] can be described thus: Cmax in Sprague-Dawley rat at 5 mg/kg, po. Also noted: dose 5 mg/kg, route oral. The settings on record: in vivo.
The nature of data set [15]: Volume of distribution at steady state in Sprague-Dawley rat at 2 mg/kg, iv. The settings on record: in vivo, read-out: Vdss. Also noted: dose 2 mg/kg, route intravenous.
A short description of data set [16]: AUC (0 to 24 hrs) in Sprague-Dawley rat at 5 mg/kg, po. Also noted: time < 24 hr, dose 5 mg/kg, route oral. The settings on record: plasma.

A word on the bioavailability: it is the share of a dose that reaches the circulation, judged against a reference dose that is usually intravenous. A lower bioavailability goes with poor availability. What is called Cmax is the maximum level reached in the sampled fluid or tissue. For `CCOc1ccc(N2CCN(c3noc(C4(NC(C)=O)CCC4)n3)[C@@H](C)C2)c(C)c1`, the “Cp(f)” value with Plasma [1] is listed as 618 nM; with Plasma [2] it was 95 nM; in the data set with Plasma [3], 882 nM; with Plasma [4], 498 nM; in the data set with Plasma [5], 1142 nM; with Plasma [6], 1482 nM. In addition, the “Cp(f)” value worked out at 1165 nM in the data set on Plasma [7], 708 nM in the data set on Plasma [8] and 988 nM in the data set on Plasma [9]. Besides, the results for the bioavailability in data set [10] and in [13] were 46% and 34%, respectively. Besides, the Cmax came out at 5800 nM in data set [11] and 1200 nM in [14]. In addition, the Vd in [12] worked out at 0.98 L/kg; in data set [15] it was 1.8 L/kg.

By AUC(0-t) is commonly meant exposure summed from dosing to a finite time, without extrapolation to infinity. Low values mean low exposure, high ones high exposure. As for `CCOc1ccc(N2CCN(c3noc(CC)n3)[C@@H](C)C2)c(C)c1`, in data set [13], the bioavailability was determined as 17%. In [16], this compound gave an AUC(0-t) at 24 h of 291 ng·h/mL. In [14], this compound yielded a Cmax of 380 nM. Moreover, in [15], the Vd amounted to 12.8 L/kg.
